Entries after “also recorded” stand apart in the source; their conditions may differ.
Tests used:
[1] = cited from earlier work
adipocytes = test: Punch biopsies before and after single treatment, HE histology and morphometry of adipocytes; assay type: in vivo, human
Method: (§1) A series of cases of small localized fat deposits on the face were treated with local triancinolone from March 2005 to October 2008 at a private clinic in Porto Alegre, southern of Brazil. […] They received injections of triamcinolone (Kenalog®-40 Injection) diluted in anesthetic solution (0.02 g/mL Lidocaine plus 0.0004 g/mL Phenilephrine—Novocol®), in different doses and number of applications (up to 3 injections, once a month), according to patient's needs. […] Patients received injections in these fatty areas of the face, through a 0.3 cc BD Ultra Fine II syringe with short needle of minimum 7 or 8 mm long.
Another patient was submitted to 3 mm punch biopsies (one on the submental area and another on suprapubical area) before and after single treatment. Histological specimens of SQ tissue were stained with hematoxylin and eosin (HE stain) and […] was also performed in the histological images of before and after treatment samples.

[2] = tested on: SQ adipose tissue of the face; test: Facial MRI before and after triamcinolone injections, thickness of SQ adipose tissue; assay type: in vivo, human
Method: as §1
One patient was submitted to a facial Magnetic Resonance Imaging (MRI) exam before and after the triamcinolone injections, in order to show the results in terms of the changes in the thickness of subcutaneous tissue. Magnetic resonance imaging examination was performed with 1.5 Tesla Closed Bore Scanner (Magnetom Symphony Maestro Class, Siemens, Erlangen, Germany) with dedicated flexible coils. T1-weighted (600 ms/14 ms, Time Repetition/Time Echo) and T2-weighted (2500 ms/45 ms, TR/TE) turbo spin echo sequences were performed in coronal, axial and sagittal planes, with emphasis on the sagittal plane. An experienced radiologist evaluated the MRI images. The thickness of SQ adipose tissue was measured with Syngo software (Siemens, Erlangen, Germany) in millimetres (mm).

[3] = tested on: small localized fat deposits on the face; test: Retrospective series of 56 patients treated with local triamcinolone injections: clinical evaluation, satisfaction, side effects

CC1(C)O[C@@H]2C[C@H]3[C@@H]4CCC5=CC(=O)C=C[C@]5(C)[C@@]4(F)[C@@H](O)C[C@]3(C)[C@]2(C(=O)CO)O1 [triamcinolone, Triamcinolone acetonide]
concentration with greater risk of cutaneous atrophy ([1]; intralesional injections, Pariser and Murray 1963): above 5 mg/cm^3
safe dose ([1]; local injections): less than 0.15 mg/kg
reduction in the volume of adipocytes in the sites of the injections (histological analysis) (adipocytes; before and after single treatment biopsies): about 30%
average number of adipocytes observed in the optical field at the same magnification (adipocytes; suprapubical area biopsy, one month after a single injection, before treatment 4): 7 adipocytes per field
average diameter of the adipocytes (adipocytes; suprapubical area biopsy, one month after a single injection, before treatment 190): 153 pixels
average area of the adipocytes (adipocytes; suprapubical area biopsy, one month after a single injection, before treatment 31661): 21705 pixels
reduction of the thickness of the study area of facial fat (MRI) ([2]; after single session of injections, FIGS. 3 and 4): 27.3%
thickness of the study area of facial fat after treatment (MRI) ([2]; after single session, before treatment 1.1 cm): 0.8 cm
reduction of the fat thickness showed by MRI ([2]; mandibular area): 37.5%
fat thickness after treatment (MRI) ([2]; mandibular area, before treatment 0.8 cm): 0.5 cm
reduction of the fat thickness showed by MRI ([2]; submental area): 33.3%
fat thickness after treatment (MRI) ([2]; submental area, before treatment 0.6 cm): 0.4 cm
subject satisfaction with the results of the procedure ([3]; 29 subjects (51.78%) who returned for evaluation): very satisfied
physician evaluation of clinical and cosmetic improvement ([3]; 29 subjects who returned for evaluation): good clinical and cosmetic improvement of facial contour
serious / severe adverse events ([3]; Kenalog-40 diluted in lidocaine plus phenilephrine, up to 3 monthly subcutaneous injection sessions): No severe local or systemic side effects were observed; also recorded: did not presented serious adverse events
local side effects observed ([3]; during and after the injections): pain and slight erythema; also recorded: hematomas in variable number and size
number of patients with cosmetic local side effects ([3]; of the treated series): three

From patent publication US20160310510A1, “MEDICINAL COSMETIC LIPOATROPHY” (priority 2009, published 2016)
